Assay results as given in patent publication US20220409733A1, “COMPOSITIONS AND METHODS FOR TREATING CANCER” (priority 2019, published 2022).
Like-named read-outs stand apart in the source and are kept apart here.

Key:
APP = APP (Homo sapiens, UniProt P05067); conditions: in vivo and in vitro; cited from earlier work
A2780 cells = test: CCK-8 assay of cDDP cytotoxicity in parental A2780 cells; assay type: cell-based; conditions: parental A2780 cell line, 1 h cDDP exposure
Protocol: (§1) FIG. 1B: CCK-8 assay of A2780, A2780-CP and A2780-CP cells pre-incubated for 24 h with APP antisense oligonucleotides (A2780ONS) during a 1 h exposure to increasing concentrations of cDDP.

A2780-CP cells = test: CCK-8 assay of cDDP cytotoxicity in Pt resistant A2780-CP cells; assay type: cell-based; conditions: 1 h cDDP exposure
Protocol: as §1

APP, sequence (P05067 18-770): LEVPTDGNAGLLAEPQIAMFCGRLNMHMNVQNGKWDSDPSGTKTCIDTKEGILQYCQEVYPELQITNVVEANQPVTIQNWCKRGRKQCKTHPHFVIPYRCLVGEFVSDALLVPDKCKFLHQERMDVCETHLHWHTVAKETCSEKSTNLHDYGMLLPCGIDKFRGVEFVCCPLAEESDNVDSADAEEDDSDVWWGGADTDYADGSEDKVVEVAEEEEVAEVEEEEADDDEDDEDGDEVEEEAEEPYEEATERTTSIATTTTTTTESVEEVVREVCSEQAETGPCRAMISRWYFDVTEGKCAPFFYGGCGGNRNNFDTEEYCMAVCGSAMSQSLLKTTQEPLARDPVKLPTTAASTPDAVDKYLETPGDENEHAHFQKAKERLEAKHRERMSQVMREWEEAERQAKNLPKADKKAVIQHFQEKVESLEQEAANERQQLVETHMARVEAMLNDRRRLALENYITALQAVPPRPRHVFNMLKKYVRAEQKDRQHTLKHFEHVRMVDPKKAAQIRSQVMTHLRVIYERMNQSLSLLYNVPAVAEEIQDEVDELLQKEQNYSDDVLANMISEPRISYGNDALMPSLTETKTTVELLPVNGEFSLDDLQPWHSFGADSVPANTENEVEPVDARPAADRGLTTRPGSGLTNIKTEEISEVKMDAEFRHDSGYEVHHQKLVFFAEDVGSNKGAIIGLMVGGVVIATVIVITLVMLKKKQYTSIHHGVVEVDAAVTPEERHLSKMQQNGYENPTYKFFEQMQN

Molecule	Binding to APP (APP)	IC50 (A2780 cells)	IC50 (A2780-CP cells; A2780-CP cells pre-treated overnight with 25 μM APP ONS, read-out: IC50 of cDDP following APP downregulation)	IC50 (A2780-CP cells; A2780-CP cells, no APP downregulation, read-out: IC50 of cDDP)
-cdkc pagtyvsehc tntslrvcss cpvgtftr- (SEQ ID NO:1) [DR6 peptide]	high affinity	–	–	–
[NH2][Pt]([NH2])([Cl])[Cl] [cDDP, Cisplatin]	–	10.2 ± 0.32 µM	12.1 ± 0.3 µM	63.2 ± 1.9 µM
